Results on 14 molecules are retold here after patent US12139526B2, “Modified chimeric receptors and related compositions and methods” (Juno Therapeutics, Inc., priority 2015, dated 2024).

Peptide text beside a SMILES is read from it.

Data set [1] deals with post-infusion PBMC samples.
For data set [2], the target named is HLA-B*08:01 (Homo sapiens, UniProt P01889, A93T/A95T/D138N/E176V/E187T/K202T/Q94N/R180D/S35A/V36M/Y33D/Y91F). Kind of data set: REVEAL Epitope Discovery System in vitro MHC-peptide binding score. The following applies: binding normalized to positive control peptide set at 100%, greater than 50 considered good or high affinity binding. Also noted: key: % binding, normalized to positive control peptide set at 100%. On the procedure: (§1) Actual binding affinities for certain HLA class I alleles (A*02:01, A*03:01. A*11:01, and B*08:01) were assessed in vitro for exemplary overlapping 9 amino acid peptide sequences within a portion of the 26 amino acid junction region spanning the CD28 and 4-1BB junction. Specifically, assessment was of a series of overlapping 9-mer peptides derived from the sequence […] (set forth in SEQ ID NO: 7), which contains a portion of the CD28 transmembrane domain and 4-1BB costimulatory domain spanning the junction between the domains (bond joining the two amino acids noted in underline). In addition, a series of overlapping 9-mer peptides of each of a number of different variants of this portion also were assessed, each variant containing a mutation or mutations in this region as described in Example 2.
(§2) The various 9-mer overlapping peptides were synthesized and their purity tested by MALDI-TOF Mass Spectrometry. The synthetic peptides were then incubated with recombinant MHC molecules to assess binding properties using the REVEAL Epitope Discovery System, which is a high-throughput binding assay that measures the degree to which each peptide is able to stabilize a ternary MHC-peptide complex (ProImmune, Oxford, United Kingdom). Each peptide was separately tested for this ability with respect to each of the HLA class I alleles, normalized to the degree observed for a positive control (known T cell epitope for the relevant allele). The results are reported as a score, in which the binding was normalized to the positive control peptide set at 100%.

The target of data set [3] is HLA-A*11:01 (Homo sapiens, UniProt P04439, A114D/D185E/E176A/F33Y/L180Q/S129P/T187R). The description is as above. The settings on record: binding normalized to positive control peptide set at 100%, greater than 50 considered good or high affinity binding. More on the design: key: % binding, normalized to positive control peptide set at 100%. The method, then:
as §1, §2

For data set [4], the target named is HLA-A*02:01 (Homo sapiens, UniProt P04439, D140Y/D185E/D98H/E176V/E277Q/G131W/G231S/I119V/I121R/I166T/I218V/L300P/L318F/N151K/N90K/P208A/P217A/Q86G/Q94H/R138H/R169H/T345S). The description is as above. The settings on record: for A*02:01 In Vitro Score: REVEAL score, positive control peptide set at 100%, greater than 50 = good or high affinity binding; for predicted or actual binding affinity or score for HLA class I: for at least one HLA allele (A*02:01, A*03:01, A*11:01, B*08:01) and/or at least one peptide, in silico or in vitro. On the procedure: as §1, §2

Data set [5] has as its target HLA-A*03:01 (Homo sapiens, UniProt P04439). The description is as above. The settings on record: positive control peptide set at 100%, greater than 50 = good or high affinity binding. The method, then:
as §1, §2

Data set [6] concerns intracellular IL-2 and IFN-γ. Kind of data set: Intracellular cytokine expression after co-culture with K562-CD19. The format is cell-based, human. The settings on record: versus unmodified CAR; for percentage of cells with IFN-γ cytokine expression: CD8+/CAR+ T cells after antigen stimulation; for percentage of cells with intracellular expression of IL-2: CD4+/CAR+ and CD8+/CAR+ T cells after antigen stimulation. The method, then:
The production of cytokines by the anti-CD19 CAR T cells, expressing CARs containing either the native junction region or the various modified junction regions, was assessed. Engineered T cells were co-cultured with irradiated CD19-transduced K562 target cells (K562-CD19) or parental K562 cells not expressing the CD19 antigen in the presence of Golgi inhibitor. After stimulation, the cells were then fixed, permeabilized and intracellular IL-2 and IFN-γ cytokine levels were assessed by flow cytometry in CD4+/CAR+ cells and CD8+/CAR+ cells

Regarding `CC[C@H](C)[C@H](NC(=O)[C@H](Cc1ccccc1)NC(=O)[C@H](C)N)C(=O)N[C@H](C(=O)N[C@@H](Cc1ccccc1)C(=O)N[C@@H](Cc1c[nH]c2ccccc12)C(=O)N[C@H](C(=O)N[C@@H](CCCCN)C(=O)N[C@@H](CCCNC(=N)N)C(=O)NCC(=O)N[C@@H](CCCNC(=N)N)C(=O)N[C@@H](CCCCN)C(=O)N[C@@H](CCCCN)C(=O)N[C@@H](CC(C)C)C(=O)N[C@@H](CC(C)C)C(=O)O)C(C)C)[C@@H](C)CC` (H-AFIIFWVKRGRKKLL-OH; N-terminus and C-terminus assumed), in data set [1], the “specific immune response (ELISpot)” value is “specific immune responses also were detected”.
Same read-out and setting: under `CC[C@H](C)[C@H](NC(=O)[C@H](Cc1ccc(O)cc1)NC(=O)[C@H](CC(C)C)NC(=O)[C@H](CC(C)C)NC(=O)[C@H](CCCCN)NC(=O)[C@H](CCCCN)NC(=O)[C@H](CCCNC(=N)N)NC(=O)CNC(=O)[C@H](CCCNC(=N)N)NC(=O)[C@H](CCCCN)NC(=O)[C@@H](NC(=O)[C@H](Cc1c[nH]c2ccccc12)NC(=O)[C@@H](N)Cc1ccccc1)C(C)C)C(=O)N[C@@H](Cc1ccccc1)C(=O)N[C@@H](CCCCN)C(=O)O` (H-FWVKRGRKKLLYIFK-OH; N-terminus and C-terminus assumed) stands “specific immune responses also were detected”.
For “VAFIIFWVR [9-mer variant junction peptide, K28R]”, in data set [2], the “B*08:01 In Vitro Score” value came out at 0.10. Further, the “A*11:01 In Vitro Score” value in data set [3] was 34.60. In addition, the “A*02:01 In Vitro Score” value in data set [4] was 1.20. The “A*03:01 In Vitro” value in data set [5] stood at 0.70.
The corresponding values for “VAFIIFWVS [9-mer variant junction peptide, K28S]” are 0.10, 25.10, 70.60 and 0.70.
The corresponding values for “WVARGRKKL [9-mer variant junction peptide, K28A]” are 32.40, 13.80, 8.80 and 1.30.
Take “WVKRGAKKL [9-mer variant junction peptide, R31A]”: in data set [2], the “B*08:01 In Vitro Score” value is 34.10. In addition, in data set [3], the “A*11:01 In Vitro Score” value is reported as 4.60. Further, in data set [4], the “A*02:01 In Vitro Score” value worked out at 4.70. In data set [5], the “A*03:01 In Vitro” value is recorded as 4.10.
The corresponding values for “WVKRGHKKL [9-mer variant junction peptide, R31H]” are 47.60, 2.80, 3.90 and 1.40.
On to “WVKRGNKKL [9-mer variant junction peptide, R31N]”, for which the “B*08:01 In Vitro Score” value in data set [2] was 65.90. Also, the “A*11:01 In Vitro Score” value in data set [3] is 4.10. For the same molecule, in data set [4], the “A*02:01 In Vitro Score” value is reported as 2.40. Further, the “A*03:01 In Vitro” value in data set [5] is listed as 0.90.
For the molecule “WVKRGSKKL [9-mer variant junction peptide, R31S]”, in data set [2], the “B*08:01 In Vitro Score” value amounted to 56.10. Moreover, the “A*11:01 In Vitro Score” value in data set [3] was 11.80. Besides, the “A*02:01 In Vitro Score” value in data set [4] is 3.00. Besides, the “A*03:01 In Vitro” value in data set [5] was found to be 1.90.
For “WVQRGNKKL [9-mer variant junction peptide, K28Q/R31N]”, in data set [2], the “B*08:01 In Vitro Score” value was 32.00. Also, in data set [3], the “A*11:01 In Vitro Score” value is recorded as 10.70. The “A*02:01 In Vitro Score” value in data set [4] is listed as 4.30. Further, in data set [5], the “A*03:01 In Vitro” value is 1.50.
Taken in the same sequence, the figures for “WVQRGRKKL [9-mer variant junction peptide, K28Q]” were 45.10, 12.80, 8.10 and 4.90.

B1: R31H: variant anti-CD19 CAR / junction region with R31H, numbering SEQ ID NO:5 (protein)
chain: FWVLVVVGGVLACYSLLVTVAFIIFWVKRGHKKLLYIFKQPFMRPVQTTQEEDGCSCRFPEEEEGGCEL
modifications: CD28-4-1BB
Regarding B1, in data set [6], the “percentage of cells with IFN-γ cytokine expression” value is recorded as “increased IFN-γ cytokine expression”. The “predicted or actual binding affinity or score for HLA class I” value in data set [4] is recorded as “reduced predicted or actual binding affinity or score”.

B2: L34A: variant anti-CD19 CAR / junction region with L34A, numbering SEQ ID NO:5 (protein)
chain: FWVLVVVGGVLACYSLLVTVAFIIFWVKRGRKKALYIFKQPFMRPVQTTQEEDGCSCRFPEEEEGGCEL
modifications: CD28-4-1BB
Consider B2, for which, in data set [6], the “percentage of cells with intracellular expression of IL-2” value is on record as “greater percentage” and the “percentage of cells with IFN-γ cytokine expression” value is “increased IFN-γ cytokine expression”. For the same molecule, in data set [4], the “predicted or actual binding affinity or score for HLA class I” value is recorded as “reduced predicted or actual binding affinity or score”.

B3: L34S: variant anti-CD19 CAR / junction region with L34S, numbering SEQ ID NO:5 (protein)
chain: FWVLVVVGGVLACYSLLVTVAFIIFWVKRGRKKSLYIFKQPFMRPVQTTQEEDGCSCRFPEEEEGGCEL
modifications: CD28-4-1BB
Regarding B3, the “percentage of cells with intracellular expression of IL-2” value in data set [6] is “greater percentage”. Moreover, the “predicted or actual binding affinity or score for HLA class I” value in data set [4] was “reduced predicted or actual binding affinity or score”.
